From patent US8835462B2, “Macrocyclic picolinamides as fungicides” (Dow AgroSciences LLC, priority 2012, dated 2014)

Assays:
Assay type in all cases: in vivo
Phakopsora pachyrhizi = assay: Asian soybean rust (PHAKPA) fungicidal activity; conditions: 25 ppm
Method: Evaluation of Fungicidal Activity: Asian Soybean Rust (Phakopsora Pachyrhizi; Bayer Code […]) Technical grades of materials were dissolved in acetone, which were then mixed with nine volumes of water containing 0.011% Tween 20. The fungicide solutions were applied onto soybean seedlings using an automated booth sprayer to run-off. All sprayed plants were allowed to air dry prior to further handling. Soybean plants (variety Williams 82) were grown in soil-less Metro mix, with one plant per pot. Two weeks old seedlings were used for testing. Plants were inoculated either 2 days prior to or 1 day after fungicide treatments. Plants were incubated for 24 h in a dark dew room at 22° C. and 100% RH then transferred to a growth room at 23° C. for disease to develop. Disease severity was assessed on the sprayed leaves.

Puccinia triticina = assay: Fungicide mobility (dropline mobility test), wheat brown rust (PUCCRT); conditions: 1 ug/leaf, disease-free zone as percent of distance from marked line to leaf tip; for Dropline Mobility Test PUCCRT 1 DPM: 1 Day Protectant Mobility; for Dropline Mobility Test PUCCRT 3 DCM: 3 Day Curative Mobility
Method: Evaluation of Fungicide Mobility: Wheat Brown Rust (Puccinia Triticina; Synonym: Puccinia recondita f. sp. Tritici; Bayer Code PUCCRT):
“Yuma” wheat seedlings were used in the test. One mg of compound was dissolved in 9 μl of EC blank (emulsifiable concentrate) and 500 μl of acetone. Acetone was then evaporated overnight by leaving the vial open in a fume hood. Two milliliters of water containing 110 ppm Triton X-100 was added to each vial to prepare application solutions. A […] drop of formulated material was applied to a marked line on the adaxial surface 5 cm from the leaf tip of the primary leaves. The primary leaves were kept in a horizontal position. Each treatment had 6 replicates. Plants were inoculated with PUCCRT 1-day after (1DPM) or 3-day prior to (3DCM) compound applications. When rust was fully expressed on primary leaves on control plants, the zone of treated leaves that was disease-free in the acropetal direction was measured with a ruler and converted to percent of the distance from marked line to leaf tip.

Uncinula necator = assay: Grape powdery mildew (UNCINE) fungicidal activity; conditions: Erysiphe necator, 24 h, 1 Day Protectant, read-out: Disease Control UNCINE 1DP
Method: Technical grades of materials were dissolved in acetone, which were then mixed with nine volumes of water containing 110 ppm Triton X-100. The fungicide solutions were applied onto wheat seedlings using an automated booth sprayer to run-off. All sprayed plants were allowed to air dry prior to further handling. Wheat plants (variety Yuma) were grown from seed in a greenhouse in 50% mineral soil/50% soil-less Metro mix until the first leaf was fully emerged, with 7-10 seedlings per pot. These plants were inoculated with an aqueous spore suspension of Septoria tritici either prior to or after fungicide treatments. After inoculation the plants were kept in 100% relative humidity (one day in a dark dew chamber followed by two to three days in a lighted dew chamber at 20° C.) to permit spores to germinate and infect the leaf. The plants were then transferred to a greenhouse set at 20° C. for disease to develop. When disease symptoms were fully expressed on the 1st leaves of untreated plants, infection levels were assessed on a scale of 0 to 100 percent disease severity. Percent disease control was calculated using the ratio of disease severity on treated plants relative to untreated plants. Evaluation of Fungicidal Activity: Grape Powdery Mildew (Uncinula Necator; Bayer Code […]) Grape seedlings (variety Carignane) were grown in soil-less Metro mix, with one plant per pot, and used in the test when approximately one month old. Plants were inoculated 24 hr after fungicide treatment by shaking spores from infected leaves over test plants. Plants were maintained in a greenhouse set at 20° C. until disease was fully developed. Fungicide formulation, application and disease assessment on the sprayed leaves followed the procedures as described in the Example A.

Cercospora beticola = assay: Leaf spot of sugar beets (CERCBE) fungicidal activity; conditions: 24 h, 1 Day Protectant, sugar beet, read-out: Disease Control CERCBE 1DP
Method: Technical grades of materials were dissolved in acetone, which were then mixed with nine volumes of water containing 110 ppm Triton X-100. The fungicide solutions were applied onto wheat seedlings using an automated booth sprayer to run-off. All sprayed plants were allowed to air dry prior to further handling. Wheat plants (variety Yuma) were grown from seed in a greenhouse in 50% mineral soil/50% soil-less Metro mix until the first leaf was fully emerged, with 7-10 seedlings per pot. These plants were inoculated with an aqueous spore suspension of Septoria tritici either prior to or after fungicide treatments. After inoculation the plants were kept in 100% relative humidity (one day in a dark dew chamber followed by two to three days in a lighted dew chamber at 20° C.) to permit spores to germinate and infect the leaf. The plants were then transferred to a greenhouse set at 20° C. for disease to develop. When disease symptoms were fully expressed on the 1st leaves of untreated plants, infection levels were assessed on a scale of 0 to 100 percent disease severity. Percent disease control was calculated using the ratio of disease severity on treated plants relative to untreated plants. Evaluation of Fungicidal Activity: Leaf Spot of Sugar Beets (Cercospora Beticola; Bayer Code CERCBE) Sugar beet plants (variety HH88) were grown in soil-less Metro mix and trimmed regularly to maintain an uniform plant size prior to test. Plants were inoculated with a spore suspension 24 hr after fungicide treatments. Inoculated plants were kept in a dew chamber at 22° C. for 48 hr then incubated in a greenhouse set at 24° C. under a clear plastic hood with bottom ventilation until disease symptoms were fully expressed. Fungicide formulation, application and disease assessment on the sprayed leaves followed the procedures as described in the Example A.

[1] = system: Blumeria graminis f. sp. tritici; assay: Wheat powdery mildew (ERYSGT) fungicidal activity; conditions: 24 h, 1 Day Protectant, read-out: Disease Control ERYSGT 1DP
Method: Technical grades of materials were dissolved in acetone, which were then mixed with nine volumes of water containing 110 ppm Triton X-100. The fungicide solutions were applied onto wheat seedlings using an automated booth sprayer to run-off. All sprayed plants were allowed to air dry prior to further handling. Wheat plants (variety Yuma) were grown from seed in a greenhouse in 50% mineral soil/50% soil-less Metro mix until the first leaf was fully emerged, with 7-10 seedlings per pot. These plants were inoculated with an aqueous spore suspension of Septoria tritici either prior to or after fungicide treatments. After inoculation the plants were kept in 100% relative humidity (one day in a dark dew chamber followed by two to three days in a lighted dew chamber at 20° C.) to permit spores to germinate and infect the leaf. The plants were then transferred to a greenhouse set at 20° C. for disease to develop. When disease symptoms were fully expressed on the 1st leaves of untreated plants, infection levels were assessed on a scale of 0 to 100 percent disease severity. Percent disease control was calculated using the ratio of disease severity on treated plants relative to untreated plants. Evaluation of Fungicidal Activity: Wheat Powdery Mildew (Blumeria Graminis f. sp. Tritici; Synonym: Erysiphe graminis f. sp. Tritici; Bayer Code […]) Wheat plants (variety Yuma) were grown from seed in a greenhouse in 50% mineral soil/50% soil-less Metro mix until the first leaf was fully emerged, with 7-10 seedlings per pot. These plants were inoculated by dusting with infected stock plants 24 hr after fungicide treatments. After inoculation the plants were kept in a greenhouse set at 20° C. for disease to develop. Fungicide formulation, application and disease assessment on the sprayed leaves followed the procedures as described in the Example A.

SMILES	Disease Control PHAKPA 1 DP (Phakopsora pachyrhizi; 1 Day Protectant)	Disease Control PHAKPA 2 DC (Phakopsora pachyrhizi; 2 Day Curative)	Dropline Mobility Test PUCCRT 1 DPM (Puccinia triticina)	Dropline Mobility Test PUCCRT 3 DCM (Puccinia triticina)	pest or weed control at 100 ppm (Uncinula necator)	pest or weed control at 100 ppm (Cercospora beticola)	pest or weed control at 100 ppm [1]
COc1ccnc(C(=O)N[C@H]2COC[C@H](Cc3ccccc3)[C@@H](OCC(C)C)[C@H](C)OC2=O)c1O [Compound 2, N-((3S,7S,8R,9S)-7-benzyl-8-isobutoxy-9-methyl-2-oxo-1,5-dioxonan-3-yl)-3-hydroxy-4-methoxypicolinamide]	A (80-100)	A (80-100)	B (More than 0-Less than 80)	B (More than 0-Less than 80)	0 to 80%		
COc1ccnc(C(=O)N[C@H]2COC[C@H](Cc3ccccc3)[C@@H](OCCC(=O)N(C)C)[C@H](C)OC2=O)c1OCOC(C)=O [Compound 15]					0 to 80%	0 to 80%	0 to 80%
COCCCO[C@@H]1[C@@H](Cc2ccccc2)COC[C@H](NC(=O)c2nccc(OC)c2OCOC(C)=O)C(=O)O[C@H]1C [Compound 16]					0 to 80%	80 to 100%	80 to 100%
CCCO[C@@H]1[C@@H](Cc2ccccc2)COC[C@H](NC(=O)c2nccc(OC)c2OCOC(C)=O)C(=O)O[C@H]1C [Compound 22]			B (More than 0-Less than 80)	B (More than 0-Less than 80)	80 to 100%	80 to 100%	80 to 100%
COc1ccnc(C(=O)N[C@H]2COC[C@H](Cc3ccccc3)[C@@H](OCCCC(F)(F)F)[C@H](C)OC2=O)c1OCOC(C)=O [Compound 23]			B (More than 0-Less than 80)	B (More than 0-Less than 80)	0 to 80%	80 to 100%	80 to 100%
CCCCCO[C@@H]1[C@@H](Cc2ccccc2)COC[C@H](NC(=O)c2nccc(OC)c2OCOC(C)=O)C(=O)O[C@H]1C [Compound 26]			B (More than 0-Less than 80)	B (More than 0-Less than 80)	80 to 100%	80 to 100%	0 to 80%
COc1ccnc(C(=O)N[C@H]2COC[C@H](Cc3ccccc3)[C@@H](OCCCc3ccccc3)[C@H](C)OC2=O)c1OCOC(C)=O [Compound 34]			B (More than 0-Less than 80)		0 to 80%	80 to 100%	0 to 80%
COC(=O)/C=C/O[C@@H]1[C@@H](Cc2ccccc2)COC[C@H](NC(=O)c2nccc(OC)c2OCOC(C)=O)C(=O)O[C@H]1C [Compound 36]			B (More than 0-Less than 80)	B (More than 0-Less than 80)	0 to 80%	0 to 80%	0 to 80%
COc1ccnc(C(=O)N[C@H]2COC[C@H](Cc3ccccc3)[C@@H](OC(=O)c3ccccc3)[C@H](C)OC2=O)c1OCOC(C)=O [Compound 37]			B (More than 0-Less than 80)		0 to 80%	80 to 100%	0 to 80%
COc1ccnc(C(=O)N[C@H]2COC[C@H](Cc3ccccc3)[C@@H](OC(=O)C3CC3)[C@H](C)OC2=O)c1OCOC(C)=O [Compound 38]			B (More than 0-Less than 80)	B (More than 0-Less than 80)	0 to 80%	80 to 100%	0 to 80%
COc1ccnc(C(=O)N[C@H]2COC[C@H](Cc3ccccc3)[C@@H](OC)[C@H](C)OC2=O)c1OCOC(C)=O [Compound 39]			A (80-100)	A (80-100)	0 to 80%	0 to 80%	0 to 80%
COc1ccnc(C(=O)N[C@H]2COC[C@H](Cc3ccccc3)[C@@H](Oc3ccccc3)[C@H](C)OC2=O)c1OCOC(C)=O [Compound 40]			B (More than 0-Less than 80)	B (More than 0-Less than 80)	0 to 80%	80 to 100%	0 to 80%
COc1ccnc(C(=O)N[C@H]2COC[C@H](Cc3ccccc3)[C@@H](OCC(F)F)[C@H](C)OC2=O)c1OCOC(C)=O [Compound 44]			B (More than 0-Less than 80)	B (More than 0-Less than 80)	0 to 80%	0 to 80%	
COc1ccnc(C(=O)N[C@H]2COC[C@H](Cc3ccccc3)[C@@H](OCCC(C)OC)[C@H](C)OC2=O)c1OCOC(C)=O (some centres unmarked) [Compound 46]			A (80-100)	A (80-100)	0 to 80%	80 to 100%	
COc1ccnc(C(=O)N[C@H]2COC[C@H](Cc3ccccc3)[C@@H](OC3CCCC3)[C@H](C)OC2=O)c1OCOC(C)=O [Compound 106]						80 to 100%	
COc1ccnc(C(=O)N[C@H]2COC[C@H](Cc3ccccc3)[C@@H](OC3CCCC3)[C@H](C)OC2=O)c1OC(C)=O [Compound 107]					0 to 80%	80 to 100%	
